pIC50: −log10 of the molar value.

Data on 11 compounds can be found in paper PMC10145393, “Virtual Screening Strategy to Identify Retinoic Acid-Related Orphan Receptor γt Modulators” (Molecules, 2023).

One data set deals with T1, human RORγ hybrids of both isoforms 1 and 2 (RORγt) (Homo sapiens, UniProt P51449).
T1 sequence (P51449 259-518): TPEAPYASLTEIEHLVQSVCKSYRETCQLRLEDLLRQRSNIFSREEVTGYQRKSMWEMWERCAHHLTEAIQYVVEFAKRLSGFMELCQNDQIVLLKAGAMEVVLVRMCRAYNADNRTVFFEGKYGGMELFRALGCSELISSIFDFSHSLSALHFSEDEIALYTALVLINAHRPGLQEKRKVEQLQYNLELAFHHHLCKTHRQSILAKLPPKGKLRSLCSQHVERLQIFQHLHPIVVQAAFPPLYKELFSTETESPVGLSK
Description: Human RAR-related Orphan Receptor Gamma Reporter Assay System (Indigo Biosciences). Format: cell-based.
Details: not given
The procedure:
The activity of the 28 selected molecules was determined at 5 μM concentration using the Human RAR-related Orphan Receptor Gamma Reporter Assay System in a 96-well format (Indigo Biosciences, State College, PA, USA). The assay utilizes human reporter cells designed to express high levels of human RORγ hybrids of both isoforms 1 and 2 and is capable of quantifying inverse agonism and agonism. […] Concentrations of the tested molecules varied from 10 µM to 8 nM, using 1/3-fold decrements within the range of 6 µM to 8 nM. Otherwise, the kit protocol was followed, and the analysis was done similarly as in a prior study.
One may read the pIC50 as the negative decadic logarithm of the IC50, by convention in mol/L. Consider `COc1cc(C2C(C#N)=C(N)N(Nc3ccccc3)C3=C2C(=O)CC(C)(C)C3)ccc1OCc1cccc(F)c1` (stereo not shown) [Compound 25], for which the pIC50 is 5.62.
Turning to `COc1cc(C2C(C#N)=C(N)N(Nc3ccccc3)C3=C2C(=O)CC(C)(C)C3)ccc1OCc1ccccc1` (stereo not shown) [Compound 26], the pIC50 was 5.49.

Staying with this data set, now noted: RORγ reporter assay, concentrations 10 µM to 8 nM; read-out: IC50.
Regarding `Clc1ccccc1COc1cccc(/C=N/Nc2nc(N3CCOCC3)nc(N3CCOCC3)n2)c1` [Compound 9], the pIC50 was 5.77.
Still for that read-out and setting: for `COc1ccc(-c2cc(C(F)(F)F)n3ncc(C(=O)N4CCN(C(c5ccccc5)c5ccccc5)CC4)c3n2)cc1` [Compound 10] the value was 5.01.
Same read-out and setting: for `COc1cc(C2C(C(=O)OC3CCCCC3)=C(C)NC3=C2C(=O)CC(c2ccc(OC)c(OC)c2)C3)ccc1O` (stereo not shown) [Compound 13] the value was 5.59; for `COc1ccc(C2CC(=O)C3=C(C2)NC(C)=C(C(=O)OC2CCCCC2)C3c2cccc(O)c2)cc1OC` (stereo not shown) [Compound 14], 5.64.
Same read-out and setting: for `O=C(O)c1ccc(CN2C(=O)/C(=C/c3cn(Cc4ccc([N+](=O)[O-])cc4)c4ccccc34)S/C2=N/c2ccccc2)cc1` [Compound 15] the value was 5.14.
Consider `COc1ccc(-c2nc3ccccc3c(C(=O)Nc3ccc(S(=O)(=O)Nc4cc(C)on4)cc3)c2C)cc1` [Compound 19], for which the pIC50 is 5.96.
For `COc1ccc(Cn2c(-c3ccc(S(=O)(=O)N4CCOCC4)cc3)cs/c2=N\c2ccccc2OC)cc1` [Compound 21], the pIC50 is 4.97.

System in the next data set: not given
Assay: not given
Particulars: reported by the vendor ref vendor (SPECS); cited from earlier work. Further details: method as in vendor (SPECS).
The logP is a log measure of how a compound divides between an organic and an aqueous phase. As to `COc1cc(C(=O)N2CCN(CCN3C(=O)c4cccc5cccc(c45)C3=O)CC2)cc(OC)c1OC` [Compound 2], the logP is listed as 1.69.
Consider `O=C(COC(=O)c1ccc(N2C(=O)C3C4c5ccccc5C(c5ccccc54)C3C2=O)cc1)c1cccc([N+](=O)[O-])c1` (stereo not shown) [Compound 17], for which the logP was 2.93.

System in another data set: not listed separately
Put plainly: Solubility observed in experimental testing.
Details: not given
Regarding `COc1cc(C(=O)N2CCN(CCN3C(=O)c4cccc5cccc(c45)C3=O)CC2)cc(OC)c1OC` [Compound 2], the solubility result is listed as “non-soluble”.
Take `O=C(COC(=O)c1ccc(N2C(=O)C3C4c5ccccc5C(c5ccccc54)C3C2=O)cc1)c1cccc([N+](=O)[O-])c1` (stereo not shown) [Compound 17]: the solubility result is on record as “non-soluble”.
